Test results taken from ChEMBL document CHEMBL1148238, “Design, synthesis and cytotoxicity of 7-deoxy aryl discodermolide analogues” (Bioorg Med Chem Lett, 2004).

What was measured:
Format in all cases: functional, cell-based
Settings in all cases: Homo sapiens
SK-OV-3 = assay: Cytotoxicity of compound against SKOV-3 cell line
MCF7 [1] = assay: Cytotoxicity of compound against MCF-7/ADR cell line
MCF7 [2] = assay: Cytotoxicity of compound against MCF-7 cell line
A549 = assay: Cytotoxicity of compound against A549 cell line

Compound: C=C/C=C\[C@H](C)[C@H](OC(N)=O)[C@@H](C)[C@H](O)[C@@H](C)C/C(C)=C\[C@H](C)[C@@H](O)[C@@H](C)/C=C\CCc1ccccc1
- IC50 (SK-OV-3): 350 nM
- IC50 (MCF7 [1]): 560 nM
- IC50 (MCF7 [2]): 480 nM
- IC50 (A549): 510 nM

Compound: C=C/C=C\[C@H](C)[C@H](OC(N)=O)[C@@H](C)[C@H](O)[C@@H](C)C/C(C)=C\[C@H](C)[C@@H](O)[C@@H](C)/C=C\CCc1cc(O)cc(O)c1
- IC50 (SK-OV-3): 40 nM
- IC50 (MCF7 [1]): > 1000 nM
- IC50 (MCF7 [2]): 160 nM
- IC50 (A549): 310 nM

Compound: C=C/C=C\[C@H](C)[C@H](OC(N)=O)[C@@H](C)[C@H](O)[C@@H](C)C/C(C)=C\[C@H](C)[C@@H](O)[C@@H](C)/C=C\CCc1ccc(C)c(F)c1
- IC50 (SK-OV-3): 1000 nM
- IC50 (MCF7 [1]): 4000 nM
- IC50 (MCF7 [2]): 1000 nM
- IC50 (A549): 4000 nM

Compound: C=C/C=C\[C@H](C)[C@H](OC(N)=O)[C@@H](C)[C@H](O)[C@@H](C)C/C(C)=C\[C@H](C)[C@@H](O)[C@@H](C)/C=C\CCc1cc(F)cc(F)c1
- IC50 (SK-OV-3): 360 nM
- IC50 (MCF7 [1]): 2000 nM
- IC50 (MCF7 [2]): 600 nM
- IC50 (A549): 1000 nM

Compound: C=C/C=C\[C@H](C)[C@H](OC(N)=O)[C@@H](C)[C@H](O)[C@@H](C)C/C(C)=C\[C@H](C)[C@@H](O)[C@@H](C)/C=C\CCc1cccc(O)c1C
- IC50 (SK-OV-3): 270 nM
- IC50 (MCF7 [1]): 1000 nM
- IC50 (MCF7 [2]): 490 nM
- IC50 (A549): 910 nM

Compound: C=C/C=C\[C@H](C)[C@H](OC(N)=O)[C@@H](C)[C@H](O)[C@@H](C)C/C(C)=C\[C@H](C)[C@@H](O)[C@@H](C)/C=C\CCc1cccc(OC)c1
- IC50 (SK-OV-3): 370 nM
- IC50 (MCF7 [1]): 500 nM
- IC50 (MCF7 [2]): 330 nM
- IC50 (A549): 600 nM

Compound: C=C/C=C\[C@H](C)[C@H](OC(N)=O)[C@@H](C)[C@H](O)[C@@H](C)C/C(C)=C\[C@H](C)[C@@H](O)[C@@H](C)/C=C\CCc1sccc1C
- IC50 (SK-OV-3): 370 nM
- IC50 (MCF7 [1]): 620 nM
- IC50 (MCF7 [2]): 370 nM
- IC50 (A549): 790 nM

Compound: C=C/C=C\[C@H](C)[C@H](OC(N)=O)[C@@H](C)[C@H](O)[C@@H](C)C/C(C)=C\[C@H](C)[C@@H](O)[C@@H](C)/C=C\CCc1cccc(O)c1
- IC50 (SK-OV-3): 40 nM
- IC50 (MCF7 [1]): 390 nM
- IC50 (MCF7 [2]): 130 nM
- IC50 (A549): 190 nM

Compound: C=C/C=C\[C@H](C)[C@H](OC(N)=O)[C@@H](C)[C@H](O)[C@@H](C)C/C(C)=C\[C@H](C)[C@@H](O)[C@@H](C)/C=C\CCc1cccc(F)c1
- IC50 (SK-OV-3): 400 nM
- IC50 (MCF7 [1]): 500 nM
- IC50 (MCF7 [2]): 370 nM
- IC50 (A549): 650 nM

Compound: C=C/C=C\[C@H](C)[C@H](OC(N)=O)[C@@H](C)[C@H](O)[C@@H](C)C/C(C)=C\[C@H](C)[C@@H](O)[C@@H](C)/C=C\CCc1ccsc1
- IC50 (SK-OV-3): 440 nM
- IC50 (MCF7 [1]): 4000 nM
- IC50 (MCF7 [2]): 850 nM
- IC50 (A549): 4000 nM

Compound: C=C/C=C\[C@H](C)[C@H](OC(N)=O)[C@@H](C)[C@H](O)[C@@H](C)C/C(C)=C\[C@H](C)[C@@H](O)[C@@H](C)/C=C\CCc1ccc(Oc2ccccc2)cc1
- IC50 (SK-OV-3): 10000 nM
- IC50 (MCF7 [1]): 10000 nM
- IC50 (MCF7 [2]): 4000 nM
- IC50 (A549): 10000 nM

Compound: C=C/C=C\[C@H](C)[C@H](OC(N)=O)[C@@H](C)[C@H](O)[C@@H](C)C/C(C)=C\[C@H](C)[C@@H](O)[C@@H](C)/C=C\CCc1ccc(C)c(O)c1
- IC50 (SK-OV-3): 410 nM
- IC50 (MCF7 [1]): 4000 nM
- IC50 (MCF7 [2]): 770 nM
- IC50 (A549): 4000 nM

Compound: C=C/C=C\[C@H](C)[C@H](OC(N)=O)[C@@H](C)[C@H](O)[C@@H](C)C/C(C)=C\[C@H](C)[C@@H](O)[C@@H](C)/C=C\CCc1cccc(Cl)c1
- IC50 (SK-OV-3): 380 nM
- IC50 (MCF7 [1]): 650 nM
- IC50 (MCF7 [2]): 400 nM
- IC50 (A549): 580 nM
